Measured values from patent publication US20240116985A1, “STAPLED PEPTIDES AND METHODS THEREOF” (priority 2020, published 2024).
Like-named read-outs stand apart in the source and are kept apart here.

Columns and labels:
[1] = target: T1, beta-catenin/TCF4 engagement (Homo sapiens, UniProt P35222); test: Nano-BRET target engagement assay (B-cat-Halo & TCF4-Luc in HEK293 cells); format: cell-based; settings: read-out: NanoBRET Abs IC50
T1 construct: expressed in transfected cells; host or cells: HEK293
T1 sequence (P35222 1-781): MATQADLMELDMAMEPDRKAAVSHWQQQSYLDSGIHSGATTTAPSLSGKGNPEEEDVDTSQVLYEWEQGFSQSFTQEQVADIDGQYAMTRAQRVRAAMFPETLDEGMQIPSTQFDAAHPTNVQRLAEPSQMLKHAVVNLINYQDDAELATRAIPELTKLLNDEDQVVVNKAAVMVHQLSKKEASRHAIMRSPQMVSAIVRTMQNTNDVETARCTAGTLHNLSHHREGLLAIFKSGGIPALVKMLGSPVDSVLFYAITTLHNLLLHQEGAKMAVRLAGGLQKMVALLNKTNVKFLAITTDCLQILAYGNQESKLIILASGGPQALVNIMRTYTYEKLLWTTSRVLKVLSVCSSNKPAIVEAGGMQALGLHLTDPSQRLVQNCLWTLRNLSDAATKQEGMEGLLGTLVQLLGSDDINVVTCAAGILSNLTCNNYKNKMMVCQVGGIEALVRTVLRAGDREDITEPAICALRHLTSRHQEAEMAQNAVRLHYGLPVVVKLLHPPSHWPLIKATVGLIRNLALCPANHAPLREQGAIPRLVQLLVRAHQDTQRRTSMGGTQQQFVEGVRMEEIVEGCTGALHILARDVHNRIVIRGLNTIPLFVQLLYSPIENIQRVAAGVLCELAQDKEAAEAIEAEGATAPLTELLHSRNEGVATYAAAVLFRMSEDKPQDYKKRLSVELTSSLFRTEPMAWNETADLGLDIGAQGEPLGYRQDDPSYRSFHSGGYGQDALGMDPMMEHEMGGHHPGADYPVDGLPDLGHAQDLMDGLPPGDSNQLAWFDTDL

[2] = target: T2, full-length beta-Catenin (Uniprot ID P35222) (Homo sapiens, UniProt P35222); test: Fluorescence polarization IC50 (beta-catenin / 5FAM-TCF4 10-53 competition); format: binding; settings: fluorescence polarization; read-out: beta-Catenin FP IC50
T2 construct: 10 nM full-length beta-Catenin (Uniprot ID P35222)
T2 sequence (P35222 1-781): T1 sequence (P35222 1-781)

| IC50 ([1]; absolute IC50) | IC50 [2] | IC50 [1] | SMILES |
| --- | --- | --- | --- |
| 16500 nM | 79 nM |  | CC(=O)N1CCC[C@]12CC=CCCCC1(CCCC=CCCCOC(=O)N3CC[C@@](C(=O)N[C@@H](Cc4ccccc4C(F)(F)F)C(=O)N[C@H](C(=O)N[C@@H](CCC(N)=O)C(N)=O)[C@@H](C)c4ccc5ccccc5c4)(C3)NC(=O)[C@H](CC(C)C)NC(=O)[C@H](Cc3ccccc3)NC(=O)[C@H](C)NC(=O)[C@H](C)NC(=O)[C@H](Cc3cccc(C(=O)O)c3)NC(=O)[C@H](CC(=O)O)NC1=O)NC(=O)[C@H](CC(C)(C)C)NC(=O)[C@H](CC(=O)O)NC2=O (stereo partly drawn) [I-2464, Ac-PL3-Asp-Npg-B5-Asp-3COOHF-Ala-Ala-Phe-Leu-PyrS2-2F3MeF-SbMe2NapA-Gln-NH2] |
|  | 19 nM | 8800 nM | CC(=O)N1CCC[C@]12CC=CCCCC1(CCCC=CCCCOC(=O)N3CC[C@@](C(=O)N[C@@H](Cc4ccccc4Cl)C(=O)N[C@@H](Cc4csc5ccccc45)C(=O)N[C@@H](CO)C(N)=O)(C3)NC(=O)[C@H](C)NC(=O)[C@H](Cc3ccccc3)NC(=O)[C@H](C)NC(=O)[C@H](C)NC(=O)[C@H](Cc3cccc(C(=O)O)c3)NC(=O)[C@H](CC(=O)O)NC1=O)NC(=O)[C@H](CC(C)(C)C)NC(=O)[C@H](CC(=O)O)NC2=O (stereo partly drawn) [I-1849, Ac-PL3-Asp-Npg-B5-Asp-3COOHF-Ala-Ala-Phe-Ala-PyrS2-2C1F-BztA-Ser-NH2] |
|  | 9 nM | 10000 nM | CC(=O)N1CCC[C@]12CC=CCCCC1(CCCC=CCCCOC(=O)N3CC[C@@](C(=O)N[C@@H](Cc4ccsc4)C(=O)N[C@@H](Cc4csc5ccccc45)C(=O)N[C@@H](CC(N)=O)C(N)=O)(C3)NC(=O)[C@H](C)NC(=O)[C@H](Cc3ccccc3)NC(=O)[C@H](C)NC(=O)[C@H](C)NC(=O)[C@H](Cc3cccc(C(=O)O)c3)NC(=O)[C@H](CC(=O)O)NC1=O)NC(=O)[C@H](CC(C)(C)C)NC(=O)[C@H](CC(=O)O)NC2=O (stereo partly drawn) [I-2042, Ac-PL3-Asp-Npg-B5-Asp-3COOHF-Ala-Ala-Phe-Ala-PyrS2-3Thi-BztA-Asn-NH2] |
| 2500 nM | 5 nM |  | CCNC(=O)CC[C@@H]1NC(=O)[C@H](Cc2cccc(C(=O)O)c2)NC(=O)[C@H](CC(=O)O)NC(=O)C2(CCCC=CCCCOC(=O)N3CC[C@@](C(=O)N[C@@H](Cc4ccsc4)C(=O)N[C@@H](Cc4csc5ccccc45)C(=O)N[C@@H](C)C(N)=O)(C3)NC(=O)[C@H](C(C)C)NC(=O)[C@H](Cc3ccccc3)NC(=O)[C@H](C)NC1=O)CCCC=CC[C@]1(CCCN1C(C)=O)C(=O)N[C@@H](CC(=O)O)C(=O)N[C@@H](CC(C)(C)C)C(=O)N2 (stereo partly drawn) [I-2302, Ac-PL3-Asp-Npg-B5-Asp-3COOHF-[NHEt]GlnR-Ala-Phe-Val-PyrS2-3Thi-BztA-Ala-NH2] |
| 17500 nM | 7 nM |  | CC(=O)N1CCC[C@]12CC=CCCCC1(CCCC=CCCCOC(=O)N3CC[C@@](C(=O)N[C@@H](Cc4ccsc4)C(=O)N[C@@H](Cc4csc5ccccc45)C(=O)N[C@@H](CCC(=O)N4CCC(N5CCN(C)CC5)CC4)C(N)=O)(C3)NC(=O)[C@H](CC(C)C)NC(=O)[C@H](Cc3ccccc3)NC(=O)[C@H](C)NC(=O)[C@H](C)NC(=O)[C@H](CN(CC(=O)O)CC(F)(F)F)NC(=O)[C@H](CC(=O)O)NC1=O)NC(=O)[C@H](CC(C)(C)C)NC(=O)[C@H](CC(=O)O)NC2=O (stereo partly drawn) [I-1801, Ac-PL3-Asp-Npg-B5-Asp-TfeGA-Ala-Ala-Phe-Leu-PyrS2-3Thi-BztA-[4MePpzPip]GlnR-NH2] |
| 40100 nM | 9 nM |  | CCCC[C@@H]1NC(=O)[C@H](CC(=O)O)NC(=O)[C@]2(CC=CCCCC3(CCCC=CCCCOC(=O)N4CC[C@@](C(=O)N[C@@H](Cc5ccccc5)C(=O)N[C@@H](Cc5csc6ccccc56)C(=O)N[C@@H](CCC(N)=O)C(N)=O)(C4)NC(=O)[C@H](CCCC)NC(=O)[C@H](Cc4ccccc4)NC(=O)[C@H](C)NC(=O)[C@H](C)NC(=O)[C@H](CC(=O)O)NC(=O)[C@H](CC(=O)O)NC3=O)NC1=O)CCCN2C(C)=O (stereo partly drawn) [I-1405, Ac-PL3-Asp-nLeu-B5-Asp-Asp-Ala-Ala-Phe-nLeu-PyrS2-Phe-BztA-Gln-NH2] |
| 3500 nM | 13 nM |  | CC(=O)N1CCC[C@]12CC=CCCCC1(CCCC=CCCCOC(=O)N3CC[C@@](C(=O)N[C@@H](Cc4ccccc4C(F)(F)F)C(=O)N[C@@H](Cc4csc5ccccc45)C(=O)N[C@@H](CCC(=O)N4CCOCC4)C(N)=O)(C3)NC(=O)[C@H](CCC(=O)N3CCOCC3)NC(=O)[C@H](Cc3ccccc3)NC(=O)[C@H](C)NC(=O)[C@H](C)NC(=O)[C@H](Cc3cccc(C(=O)O)c3)NC(=O)[C@H](CC(=O)O)NC1=O)NC(=O)[C@H](CC(C)(C)C)NC(=O)[C@H](CC(=O)O)NC2=O (stereo partly drawn) [I-2546, Ac-PL3-Asp-Npg-B5-Asp-3COOHF-Ala-Ala-Phe-MorphGln-PyrS2-2F3MeF-BztA-MorphGln-NH2] |
|  | 22 nM | 16100 nM | CC(=O)N1CCC[C@]12CC=CCCCC1(CCCC=CCCCOC(=O)N3CC[C@@](C(=O)N[C@@H](Cc4ccsc4)C(=O)N[C@@H](Cc4csc5ccccc45)C(=O)N[C@@H](CC(C)(C)C)C(N)=O)(C3)NC(=O)[C@H](CC(C)C)NC(=O)[C@H](Cc3ccccc3)NC(=O)[C@H](C)NC(=O)[C@H](CCC(N)=O)NC(=O)[C@H](Cc3cccc(C(=O)O)c3)NC(=O)[C@H](CC(=O)O)NC1=O)NC(=O)[C@H](CC(C)(C)C)NC(=O)[C@H](CC(=O)O)NC2=O (stereo partly drawn) [I-2192, Ac-PL3-Asp-Npg-B5-Asp-3COOHF-Gln-Ala-Phe-Leu-PyrS2-3Thi-BztA-Npg-NH2] |
| 6200 nM | 107 nM |  | CC(=O)N1CCC[C@]12CC=CCCCC1(CCCC=CCCCOC(=O)N3CC[C@@](C(=O)N[C@@H](Cc4ccsc4)C(=O)N[C@@H](Cc4csc5ccccc45)C(=O)N[C@@H](CC(N)=O)C(=O)N[C@@H](C)C(=O)NC(C)(C)C(=O)N[C@@H](C)C(=O)NC(C)(C)C(=O)N[C@@H](C)C(=O)NC(C)(C)C(=O)N[C@@H](C)C(N)=O)(C3)NC(=O)[C@H](CC(C)C)NC(=O)[C@H](Cc3ccccc3)NC(=O)[C@H](C)NC(=O)[C@H](C)NC(=O)[C@H](Cc3cccc(C(=O)O)c3)NC(=O)[C@H](CC(=O)O)NC1=O)NC(=O)[C@H](CC(C)(C)C)NC(=O)[C@H](CC(=O)O)NC2=O (stereo partly drawn) [I-2273, Ac-PL3-Asp-Npg-B5-Asp-3COOHF-Ala-Ala-Phe-Leu-PyrS2-3Thi-BztA-Asn-Ala-Aib-Ala-Aib-Ala-Aib-Ala-NH2] |
|  | 32 nM | > 20000 nM | CC(=O)N1CCC[C@]12CC=CCCCC1(CCCC=CCCCOC(=O)N3CC[C@@](C(=O)N[C@@H](Cc4ccsc4)C(=O)N[C@@H](Cc4csc5ccccc45)C(=O)N[C@@H](CCC(N)=O)C(N)=O)(C3)NC(=O)[C@H](CC(N)=O)NC(=O)[C@H](Cc3cccc(C(=O)O)c3)NC(=O)[C@H](C)NC(=O)[C@H](C)NC(=O)[C@H](CCc3ccc(O)cc3)NC(=O)[C@H](CC(=O)O)NC1=O)NC(=O)[C@H](CC(C)(C)C)NC(=O)[C@H](CC(=O)O)NC2=O (stereo partly drawn) [I-2114, Ac-PL3-Asp-Npg-B5-Asp-hTyr-Ala-Ala-3COOHF-Asn-PyrS2-3Thi-BztA-Gln-NH2] |
| 11900 nM | 29 nM |  | CC(=O)N1CCC[C@]12CC=CCCCC1(CCCC=CCCCOC(=O)N3CC[C@@](C(=O)N[C@@H](Cc4ccsc4)C(=O)N[C@@H](Cc4csc5ccccc45)C(=O)N[C@@H](Cc4cccc(C(N)=O)c4)C(N)=O)(C3)NC(=O)[C@H](CC(C)C)NC(=O)[C@H](Cc3ccccc3)NC(=O)[C@H](C)NC(=O)[C@H](C)NC(=O)[C@H](CN(CC(=O)O)CC(F)(F)F)NC(=O)[C@H](CC(=O)O)NC1=O)NC(=O)[C@H](CC(C)(C)C)NC(=O)[C@H](CC(=O)O)NC2=O (stereo partly drawn) [I-1708, Ac-PL3-Asp-Npg-B5-Asp-TfeGA-Ala-Ala-Phe-Leu-PyrS2-3Thi-BztA-3cbmf-NH2] |
| 6100 nM | 49 nM |  | CC(=O)N1CCC[C@]12CC=CCCCC1(CCCC=CCCCOC(=O)N3CC[C@@](C(=O)N[C@@H](Cc4ccccc4C(F)(F)F)C(=O)N[C@@H](Cc4csc5cccc(Cl)c45)C(=O)N[C@@H](C)C(N)=O)(C3)NC(=O)[C@H](CC(C)C)NC(=O)[C@H](Cc3ccccc3)NC(=O)[C@H](C)NC(=O)[C@H](CCC(N)=O)NC(=O)[C@H](Cc3cccc(C(=O)O)c3)NC(=O)[C@H](CC(=O)O)NC1=O)NC(=O)[C@H](CC(C)(C)C)NC(=O)[C@H](CC(=O)O)NC2=O (stereo partly drawn) [I-2491, Ac-PL3-Asp-Npg-B5-Asp-3COOHF-Gln-Ala-Phe-Leu-PyrS2-2F3MeF-4C1BztA-Ala-NH2] |

| SMILES | IC50 ([1]; absolute IC50) | IC50 [2] | IC50 [1] |
| --- | --- | --- | --- |
| CC(=O)N1CCC[C@]12CC=CCCCC1(CCCC=CCCCOC(=O)N3CC[C@@](C(=O)N[C@@H](Cc4ccsc4)C(=O)N[C@@H](Cc4csc5ccccc45)C(=O)N[C@@H](CCC(N)=O)C(N)=O)(C3)NC(=O)[C@H](CCC(=O)N3CCC(N4CCCCC4)CC3)NC(=O)[C@H](Cc3ccccc3)NC(=O)[C@H](C)NC(=O)[C@H](C)NC(=O)[C@H](CN(CC(=O)O)CC(F)(F)F)NC(=O)[C@H](CC(=O)O)NC1=O)NC(=O)[C@H](CC(C)(C)C)NC(=O)[C@H](CC(=O)O)NC2=O (stereo partly drawn) [I-1940, Ac-PL3-Asp-Npg-B5-Asp-TfeGA-Ala-Ala-Phe-[4Pippip]GlnR-PyrS2-3Thi-BztA-Gln-NH2] |  | 6 nM | 15400 nM |
